Target: T1, CAMK2G (CaMKII gamma) (Homo sapiens, UniProt Q13555)
T1 construct: purchased Thermo Fisher Scientific (Life Technologies) SelectScreen
Test: SelectScreen LanthaScreen
Format: binding
Settings: read-out: % displacement
In short: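 SelectScreen broad panel; activity (Z'LYTE, Adapta) plus binding formats. ATP: Km app for CSF1R Z'LYTE; 10 for CAMK1 Adapta. Readout = % per kinase.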

T1 sequence (Q13555 whole entry): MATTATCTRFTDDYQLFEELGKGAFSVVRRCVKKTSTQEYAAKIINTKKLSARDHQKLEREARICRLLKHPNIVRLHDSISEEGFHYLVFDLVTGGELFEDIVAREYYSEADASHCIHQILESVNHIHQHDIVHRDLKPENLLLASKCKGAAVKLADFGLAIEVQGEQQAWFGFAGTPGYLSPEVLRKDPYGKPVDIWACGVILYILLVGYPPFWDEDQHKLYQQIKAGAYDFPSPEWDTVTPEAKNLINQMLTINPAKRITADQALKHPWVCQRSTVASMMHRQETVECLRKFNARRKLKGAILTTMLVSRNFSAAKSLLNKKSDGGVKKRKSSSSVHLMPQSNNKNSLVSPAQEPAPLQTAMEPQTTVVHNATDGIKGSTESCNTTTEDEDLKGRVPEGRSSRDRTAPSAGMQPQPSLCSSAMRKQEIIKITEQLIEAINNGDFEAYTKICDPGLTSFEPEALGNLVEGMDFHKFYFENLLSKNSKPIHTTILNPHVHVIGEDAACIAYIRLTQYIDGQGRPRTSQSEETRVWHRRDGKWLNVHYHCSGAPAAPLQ

Question: For `CN(C(=O)CN1CCOCC1)c1ccc2sc3c(-c4cccc5c(=O)cc(N6CC7CCC(C6)O7)oc45)cccc3c2c1` [NU5455], which inhibition at 1 µM is on record?
Answer: The inhibition at 1 µM was -0.8%.
